Measured values from patent US9504755B2, “Multi-arm polymeric alkanoate conjugates” (Nektar Therapeutics, priority 2008, dated 2016).

What was measured:
[1] = Pharmacokinetics after IV infusion in Sprague-Dawley rats; assay type: in vivo, rat; settings: Sprague-Dawley, rat, plasma, male rats, single IV dose 5 mg/kg
Protocol: The objective of this study was to assess the pharmacokinetics and excretion of docetaxel and 4-ARM-PEG20K-BA-docetaxel after intravenous infusion to rats.
Pharmacokinetics of 4-ARM-PEG20K-BA-docetaxel and docetaxel were evaluated in male rats (15 rats/dose level) dosed with 5, 10, and 15 mg/kg (30, 60, 90 mg/m^2) 4-ARM-PEG20K-BA-docetaxel or 5 mg/kg (30 mg/m^2) docetaxel. 4-ARM-PEG20K-BA-docetaxel and docetaxel were administered via a femoral vein catheter as 30-min intravenous infusions at 4 mL/kg. Blood samples (n=15 timepoints with n=5 samples/dose level/timepoint) were obtained by jugular venipuncture between pre-dose and 144 hours post-dose.

[2] = Population pharmacokinetic modeling of terminal disposition rate constant, rats; assay type: in vivo; settings: rat, in vivo
Description: (§1) To further evaluate the sustained plasma docetaxel terminal half-life, a population pharmacokinetic approach was employed.
(§2) While determining the pharmacokinetics of docetaxel after administration of docetaxel or 4-ARM-PEG20K-BA-docetaxel, it was observed that reliable values for the terminal disposition rate constant λz could not be obtained for the majority of animals secondary to fluctuation of plasma docetaxel concentrations between adjacent sampling times and/or the occurrence of incomplete concentration-time profiles due to concentrations being near or at the lower limit of quantification (1 ng/mL). In addition, in Example 14, rats were sampled in groups of 15 using alternating, overlapping sparse sampling schemes across groups to encompass the total duration of sampling. All of these factors contributed to the occurrence of sparse data within a given animal's terminal concentration-time profile.
(§3) To further investigate and compare docetaxel terminal disposition patterns between docetaxel and 4-ARM-PEG20K-BA-docetaxel, population pharmacokinetic methods were applied to data from rats (Example 14) and dogs (Example 15 and in one additional study). This allowed estimation of population λz values and corresponding half-life values for each treatment group in the presence of incomplete data within individual animals. Specifically, data from all animals within a treatment group and all treatment groups were fit with a nonlinear mixed effect pharmacokinetic model using the program Monolix. Plasma docetaxel concentrations following docetaxel or 4-ARM-PEG20K-BA-docetaxel administration, and plasma 4-ARM-PEG20K-BA-docetaxel concentrations following 4-ARM-PEG20K-BA-docetaxel administration were fit with a model specifying zero-order input of the dose over a defined infusion period and biexponential disposition (Monolix PK Model 26). Docetaxel concentration-time data after 4-ARM-PEG20K-BA-docetaxel were fit with a model having first order input, to reflect metabolism of 4-ARM-PEG20K-BA-docetaxel to the active docetaxel metabolite, and biexponential disposition (Monolix PK Model 31). The parameter of interest for this investigation was the population terminal disposition rate constant, λz to supplement the results described above.

[3] = Plasma and tumor pharmacokinetics in H460 tumor-bearing nude mice; assay type: in vivo, mouse; settings: female, HRLN nude, mouse, in vivo, iv
Protocol: To assess whether the improved antitumor activity was due to greater plasma and tumor docetaxel exposure following 4-ARM-PEG20K-BA-DOC administration, plasma and tumor homogenates were analyzed after a single IV administration of 4-ARM-PEG20K-BA-DOC or docetaxel in mice bearing H460 tumors. In looking at each of 4-ARM-PEG20K-BA-DOC and docetaxel dosed at their respective maximum tolerated doses (MTDs) of 33 and 25 mg/kg, the following was observed. […] The maximum plasma docetaxel concentration with 4-ARM-PEG20K-BA-DOC was 13-fold lower than that with docetaxel.
The objective of this study was to compare docetaxel pharmacokinetics following 4-ARM-PEG20K-BA-docetaxel with that following docetaxel administration, in plasma and tumor tissue of athymic female mice bearing H460 NSCLC tumors and to determine the effects on complete blood counts. This example summarizes the pharmacokinetic results.
H460 tumor cells were grown in vitro and implanted subcutaneously into female HRLN nude mice. When tumor sizes reached between 172 and 288 mg, animals were dosed by intravenous bolus injection with 25 mg/kg docetaxel or 33 mg/kg 4-ARM-PEG20K-BA-docetaxel at a dosing volume of 10 mL/kg. These dose levels correspond to the maximum tolerated doses for docetaxel and 4-ARM-PEG20K-BA-docetaxel administered on a q7d×3 schedule in this tumor model. Blood and tumor samples (n=7 timepoints with n=3/timepoint) were collected from 0 to 7 days after IV injection. Plasma and tumor samples were analyzed for docetaxel and 4-ARM-PEG20K-BA-docetaxel.

[4] = Population pharmacokinetic modeling of terminal disposition rate constant, dogs; assay type: in vivo; settings: dog, in vivo
Description: as §1, §2, §3
Dogs in the additional study received 7 mg/kg doses of 4-ARM-PEG20K-BA-docetaxel on Days 1 and 22 with serial blood sampling after each dose for determination of plasma 4-ARM-PEG20K-BA-docetaxel and docetaxel concentrations.

[5] = 25 mg/kg, analyte docetaxel, tumor

SMILES: CC(=O)O[C@@]12CO[C@@H]1C[C@H](O)[C@@]1(C)C(=O)[C@H](O)C3=C(C)[C@@H](OC(=O)[C@H](O)[C@@H](NC(=O)OC(C)(C)C)c4ccccc4)C[C@@](O)([C@@H](OC(=O)c4ccccc4)[C@H]21)C3(C)C [Docetaxel, reference compound]
- AUC(0-t) ([1]; read-out: AUClast, analyte docetaxel): 1.42 µg·h/mL
- Cmax ([1]; read-out: Cmax, analyte docetaxel): 0.682 µg/mL
- Tmax ([1]; read-out: Tmax, analyte docetaxel): 0.5 h
- t½λz, plasma docetaxel [2]: 40 h
- concentration at 72 hr ([3]; 25 mg/kg): < 0.001 µg/mL
- AUC(0-t) ([3]; 25 mg/kg, AUClast, analyte docetaxel, tumor): 139 µg·h/mL
- Cmax ([3]; 25 mg/kg, analyte docetaxel, plasma): 2.57 µg/mL
- Cmax [3, 5]: 2.34 µg/mL
- Tmax [3, 5]: 4 h
- Tmax ([3]; analyte docetaxel, plasma): 0.5 h
- Tmax ([3]; analyte docetaxel, tumor): ≤ 4 h
- t½λz, plasma docetaxel [4]: 25 h
